Reference: ChEMBL document CHEMBL1157539, “Thousands of chemical starting points for antimalarial lead identification” (Nature, 2010)

Tested on: Plasmodium falciparum
Assay: GSK_TCMDC: Inhibition of Plasmodium falciparum 3D7 in whole erythrocytes, using parasite LDH activity as an index of growth.
Type: functional, organism-based
Details: Plasmodium falciparum, 3D7

Compound | XC50 [µM]
CCCc1cc(=O)[nH]c(-n2nc(C)cc2NC(=O)C(CC)c2ccccc2)n1 (centres undefined) | 0.944
COc1ccc(C(C(=O)NC2CCN(C[C@H](O)c3ccnc4ccc(OC)cc34)CC2)N2CCN(Cc3ccccc3)CC2)cc1 (some centres undefined) | 0.149
COc1ccc(-n2ncc(C(=O)N3CCC4(C3)C(=O)N(c3ccccc3)c3ccccc34)c2C)cc1 (centres undefined) | 0.932
COc1cc(NC(=O)N2CCc3cc(OC)c(OCCN4CCCCC4)cc32)cc(C(F)(F)F)c1 | 1.15
Cc1cc(N[C@@H](CC(C)C)C(=O)NCCc2ccccc2)nc(NCc2ccccc2C)n1 | 0.906
CCCNCc1ccc(-c2ccc(CN(Cc3cccs3)C(=O)C3CCN(C)CC3)cc2)nc1 | 0.665
CC(C)C[C@H]1c2[nH]c3ccc(Cl)cc3c2CCN1C(=O)CCc1ccccc1 | 0.885
O=[N+]([O-])c1ccc(N2CCCN(C(=S)Nc3ccc(F)cc3Br)CC2)nc1 | 0.302
O=C(Nc1cccc(CN2CCCN(Cc3ccc4c(c3)OCO4)CC2)c1)c1ccc2ccccc2c1 | 1.05
[O-][S+]1c2ccccc2Sc2ccccc21 | 0.168
COc1cc2cc(C(=O)Nc3ccccc3)c(N)nc2cc1OC | 1.13
COc1ccc2nccc([C@@H](O)CN3CCC(NC(=O)c4ccc5nc(-n6cccc6)sc5c4)CC3)c2c1 | 1
O=C(Nc1cccc(-c2cccc(CN3CCCC3)c2)c1)c1cccc(Cl)c1 | 1.18
COc1ccc(-c2cc3nc4c(c(NCCCn5ccnc5)n3n2)CCCC4)cc1 | 0.73
Cc1cccc(CCCNC(=O)CN(c2cccc(C(F)(F)F)c2)S(=O)(=O)c2ccc(C(F)(F)F)cc2)c1 | 0.684
Cc1cccc2nc(-c3ccc(-c4ccc(NC(=O)NCc5ccc(F)cc5)cc4)cc3)[nH]c12 | 1.33
CN1CCC(Oc2cc(CN3CC[C@H](NC(=O)c4ccc(Cl)c(Cl)c4)C3)ccc2I)C1 (some centres undefined) | 0.843
CCN(CC)c1ccc2nc(N)nc(N)c2c1 | 0.0739
NC1CCN(Cc2cccc(-c3ccc(-c4nc5ccccc5[nH]4)cc3)c2)C1 (centres undefined) | 0.83
CN(C(=O)/C=C/c1cc(C(F)(F)F)ccc1F)C1CCN(CCCCCNC(=O)/C=C/c2ccc(Cl)c(Cl)c2)C1 (centres undefined) | 1.09

Compound | XC50 [µM]
Nc1nc(-c2ccccn2)nc(-n2nc(-c3cccc(C(F)(F)F)c3)cc2N)n1 | 1.04
O=C(Nc1ccc(-c2nc3ccccc3[nH]2)cc1)c1cccc([N+](=O)[O-])c1 | 0.22
COC(=O)c1ccc(CC(C)NCC(O)c2cccc(I)c2)cc1 (centres undefined) | 1.32
C=CC[C@H](C[C@H](O)[C@H](Cc1ccccc1)NC(=O)c1ccc(-c2cccnn2)cc1)C(=O)NC1CCCCC1 | 1.19
CN1CCN(c2ccnc3ccc(NC(=O)N(C)c4ccc(Cl)c(Cl)c4)cc23)CC1 | 0.741
N=C(N)NC(=O)Nc1ccc(Cl)c([N+](=O)[O-])c1 | 0.762
OCCNc1nc(Nc2ccc(F)cc2)nc2ccccc12 | 0.164
COc1ccc2nccc([C@@H](O)CN3CCC(NCc4ccc5nc[nH]c(=O)c5c4)CC3)c2c1 | 0.921
Cc1nc2ccccc2c(O)c1[N+](=O)[O-] | 1.11
CC1CCN(Cc2c(O)ccc3c(CN4CCC(C)CC4)c(O)ccc23)CC1 | 0.133
CCN1CCc2c1cc(C(=O)N[C@@H](Cc1ccccc1)[C@H](O)CNC(C)(C)c1cccc(C(F)(F)F)c1)cc2N1CCCCS1(=O)=O | 0.109
O=C(/C=C/c1ccc(Cl)c(Cl)c1)NCCCCCN1CCC(NC(=O)Nc2cc(F)cc(F)c2)CC1 | 0.787
CCCCCN1CCCC(CNS(=O)(=O)c2ccc(C(=O)Nc3ccc(C(F)(F)F)cc3)cc2)C1 (centres undefined) | 0.916
c1ccn2c(-c3ncnc(NCc4ccc5c(c4)CCO5)n3)cnc2c1 | 1.19
CN1CCN(c2cccc(Nc3nccc(NCC(O)c4ccccc4)n3)c2)CC1 (centres undefined) | 0.718
COc1cc2c(cc1OC)CC(NCCCCCCNCCc1ccc(Cl)cc1)CC2 (centres undefined) | 0.738
O=C(NC1CCN(CCN2CCC(c3c[nH]c4ccccc34)CC2)CC1)c1ccc(-c2ccc(C(F)(F)F)cc2)cc1 | 0.205
CN1CCN(c2ccnc3cc4c(cc23)N(C(=O)Nc2ccc(-c3ccncc3)c3ccccc23)CC4)CC1 | 0.945
COc1ccc2oc(=O)c(C#N)c(O)c2c1 | 0.211
